Test results published in patent US12180192B2, “Modulators of THR-β and methods of use thereof” (ALIGOS THERAPEUTICS, INC., priority 2019, dated 2024).
Where two headings read alike, the source gives them in different places.

What was measured:
Format in all cases: cell-based
[1] = test system: CPT1A gene expression in Huh-7 cells; test: Huh-7 differential gene expression, CPT1A RT-qPCR (Assay 3); details: Table 6, Huh-7 cells, CPT1A, 24 hr treatment; for EC50: read-out: Activity category Assay 3 EC50; for Emax: read-out: Activity category Assay 3 Emax
Procedure: Huh-7 Differential Gene Expression (Assay 3)
Fetal bovine serum (FBS) was incubated with washed resin (50 mg resin/mL FBS; resin weight is dry weight of resin prior to washing) for 5 hr at room temperature on a rotor. The FBS was separated from the resin via centrifugation and incubated with new, washed resin for 18 h at room temperature on a rotor.
Cell Culture and Drug Treatment
Huh-7 cells were cultured in DMEM (10-013-CM, Corning) supplemented with 10% FBS and 1% Pen-Strep at 37° C. under 5% C02. When 70-80% confluence was reached, the cells were removed by trypsinization. The medium was aspirated from the cell culture dish, the cell monolayer was washed with 1×PBS, and 0.05% trypsin, 0.53 mM EDTA (25-052-CV, Corning) solution was added to the dish. After 3 min incubation, the cells were detached completely by repeatedly pipetting solution onto the monolayer. Equal volume of DMEM supplemented with 10% rFBS and 1% Pen-Strep (TH-depleted DMEM) was added to the dish to inactivate the trypsin. The cell suspension was centrifuged at 350×g at room temperature for 3 min. The supernatant was aspirated out and the cell pellet was resuspended in TH-depleted DMEM. […] After 24 hr incubation, the media was replaced with treatment media. All compounds were serially diluted in DMSO and final concentrations were reached by dilution in TH-depleted DMEM (0.1% DMSO). The cells were incubated in treatment media for 24 hr. Treatments were performed in biological duplicates.
After 24 hr in treatment media, the cells were lysed directly on the culture plates and cDNA was produced using the TaqMan™ Fast Advanced Cells-to-CT™ Kit (A35374, Invitrogen) and following the manufacturer's protocol. RT-qPCR for CPT1A (Hs00912671_m1) and two housekeeping genes, ACTB (Hs01060665_g1) and TFG (Hs02832013_g1), was performed using TaqMan™ Fast Advanced Master Mix. RT-qPCR reactions were run on the qTOWER^3 84 G (Analytik Jena) in technical duplicates.
ΔRn values were obtained from the qPCRsoft384 1.0 software and CPT1A gene expression was quantified via the 2-ΔΔCt method. Dose-response curves were generated using GraphPad Prism 8 using four parameter logistic equation without top constraint to derive EC50 and Emax.

THR beta = molecular target: T1, THR beta (Homo sapiens, UniProt P10828); test: HEK293T THR beta/RXR luciferase reporter assay (Assay 2); details: for Emax: HEK-293T
T1 construct: expressed in transfected cells; host or cells: HEK293T (ATCC CRL-3216)
T1 sequence (P10828 1-461): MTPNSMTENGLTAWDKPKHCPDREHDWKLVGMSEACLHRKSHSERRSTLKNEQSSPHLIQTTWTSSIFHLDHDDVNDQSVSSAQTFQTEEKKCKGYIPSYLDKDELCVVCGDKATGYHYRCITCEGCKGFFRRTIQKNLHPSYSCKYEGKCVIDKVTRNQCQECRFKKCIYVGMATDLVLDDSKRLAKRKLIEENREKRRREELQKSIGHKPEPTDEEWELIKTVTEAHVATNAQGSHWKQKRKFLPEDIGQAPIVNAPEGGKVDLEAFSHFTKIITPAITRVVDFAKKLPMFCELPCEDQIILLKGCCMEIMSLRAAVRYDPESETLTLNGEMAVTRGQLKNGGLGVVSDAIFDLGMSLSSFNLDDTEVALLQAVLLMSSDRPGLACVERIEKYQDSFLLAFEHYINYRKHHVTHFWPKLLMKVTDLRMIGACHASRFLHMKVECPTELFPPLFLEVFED
T1 sequence (P19793 1-462 partner): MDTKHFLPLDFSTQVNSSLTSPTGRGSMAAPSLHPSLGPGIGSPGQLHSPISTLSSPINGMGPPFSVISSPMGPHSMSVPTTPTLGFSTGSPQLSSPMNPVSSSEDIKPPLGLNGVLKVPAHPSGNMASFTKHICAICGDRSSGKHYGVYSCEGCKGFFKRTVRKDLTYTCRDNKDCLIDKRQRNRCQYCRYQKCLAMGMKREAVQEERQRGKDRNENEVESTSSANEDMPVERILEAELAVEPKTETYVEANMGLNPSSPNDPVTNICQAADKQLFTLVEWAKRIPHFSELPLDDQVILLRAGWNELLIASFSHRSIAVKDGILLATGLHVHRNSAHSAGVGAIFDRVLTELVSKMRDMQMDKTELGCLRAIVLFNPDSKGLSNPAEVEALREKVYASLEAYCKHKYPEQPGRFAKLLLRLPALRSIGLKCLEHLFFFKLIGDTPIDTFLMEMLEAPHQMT
How it was run: (§1)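 Compounds tested as ten-point five-fold dilution series for 18-24 h on transiently transfected HEK293T cells carrying TRE-driven luciferase plus RXR and either THR alpha or beta expression plasmids. Read-out by One-Glo luminescence, expressed as percent agonism relative to negative and positive controls.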

THR alpha = molecular target: T2, THR alpha (Homo sapiens, UniProt P10827); test: HEK293T THR alpha/RXR luciferase reporter assay (Assay 2); details: for Emax: HEK-293T
T2 construct: expressed in transfected cells; host or cells: HEK293T (ATCC CRL-3216)
T2 sequence (P10827 1-410 isoform P10827-2): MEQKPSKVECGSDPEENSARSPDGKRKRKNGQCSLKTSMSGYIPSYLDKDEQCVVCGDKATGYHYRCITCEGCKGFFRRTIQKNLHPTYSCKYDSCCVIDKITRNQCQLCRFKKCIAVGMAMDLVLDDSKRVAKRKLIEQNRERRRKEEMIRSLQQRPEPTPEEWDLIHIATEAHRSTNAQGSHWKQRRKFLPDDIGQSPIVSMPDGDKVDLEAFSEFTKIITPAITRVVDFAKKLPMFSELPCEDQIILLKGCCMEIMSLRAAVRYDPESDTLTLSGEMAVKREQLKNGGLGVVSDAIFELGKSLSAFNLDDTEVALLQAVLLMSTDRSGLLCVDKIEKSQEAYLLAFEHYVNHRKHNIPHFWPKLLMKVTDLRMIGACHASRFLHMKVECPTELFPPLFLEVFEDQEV
T2 sequence (P19793 1-462 partner): T1 sequence (P19793 1-462 partner)
How it was run: as §1

[2] = Table 5, Assay 2, THRβ, read-out: Activity category Assay 2 THRβ (Emax)
[3] = THR-beta, HEK293T reporter assay, read-out: Activity category Assay 2 (EC50, THR-beta agonist)
[4] = Table 5, Assay 2, THRα, read-out: Activity category Assay 2 THRα (Emax)
[5] = Table 4, THR-alpha, Assay 2, read-out: Activity category Assay 2 (EC50, THR-alpha agonist activity)

Row | SMILES | EC50 ([1]; Homo sapiens, Huh-7, 24 h) | Emax (THR beta; [2]) | EC50 (THR beta; [3]) | Emax (THR alpha; [4]) | EC50 (THR alpha; [5]) | EC50 (THR beta; HEK293T reporter THRbeta/RXR, read-out: EC50 β) | Emax (THR beta; HEK293T reporter THRbeta/RXR, read-out: percent in parentheses below EC50 β (percent agonism / Emax)) | EC50 (THR alpha; HEK293T reporter THRalpha/RXR, read-out: EC50 α) | Emax (THR alpha; HEK293T reporter THRalpha/RXR, read-out: percent in parentheses below EC50 α (percent agonism / Emax)) | EC50 [1] | Activity category Assay 2 THRβ (Emax) (THR beta; Table 5, Assay 2, THRβ) | Activity category Assay 2 THRα (Emax) (THR alpha; Table 5, Assay 2, THRα) | Emax ([1]; Homo sapiens, Huh-7, 24 h) | Activity category Assay 3 Emax [1]
1 | CC(C)Nc1n[nH]c2ccc(Oc3c(Cl)cc(-n4nc(C#N)c(=O)[nH]c4=O)cc3Cl)cc12 [Compound 145, 2-(3,5-dichloro-4-((3-(isopropylamino)-1H-indazol-5-yl)oxy)phenyl)-3,5-dioxo-2,3,4,5-tetrahydro-1,2,4-triazine-6-carbonitrile] | 100 to 1000 nM | 50 to 75% | 1000 to 10000 nM | 50 to 75% | 1000 to 10000 nM | – | – | – | – | – | – | – | > 75% | –
2 | Nc1nn(-c2cc(Cl)c(Oc3cc(-c4ccc5ccccc5c4)c(=O)[nH]n3)c(Cl)c2)c(=O)[nH]c1=O [Compound 67, 6-amino-2-(3,5-dichloro-4-[[5-(naphthalen-2-yl)-6-oxo-1H-pyridazin-3-yl]oxy]phenyl)-4H-1,2,4-triazine-3,5-dione] | > 100 nM | 50 to 75% | 50 to 250 nM | < 50% | > 10000 nM | – | – | – | – | – | – | – | > 75% | –
3 | Nc1nn(-c2cc(Cl)c(Oc3cc(C4CCC4)c(=O)[nH]n3)c(Cl)c2)c(=O)[nH]c1=O [Compound 40, 6-amino-2-[3,5-dichloro-4-[(5-cyclobutyl-6-oxo-1H-pyridazin-3-yl)oxy]phenyl]-4H-1,2,4-triazine-3,5-dione] | < 100 nM | > 75% | 50 to 250 nM | > 75% | 250 to 1000 nM | 58 nM | 92% | 564 nM | 95% | – | – | – | > 75% | –
4 | CC(c1cc(Oc2c(Cl)cc(-n3nc(N)c(=O)[nH]c3=O)cc2Cl)n[nH]c1=O)C1CC(F)(F)C1 (single isomer, unassigned) [Compound 61-B, 6-amino-2-[3,5-dichloro-4-([5-[1-(3,3-difluorocyclobutyl)ethyl]-6-oxo-1H-pyridazin-3-yl]oxy)phenyl]-4H-1,2,4-tri-azine-3,5-dione] | – | – | 250 to 1000 nM | – | 250 to 1000 nM | – | – | – | – | > 100 nM | A (Emax≥75%) | C (Emax<50%) | – | A (Emax≥75%)
5 | Nc1nn(-c2cc(Cl)c(Oc3cc(-c4ccc5c(c4)CCCC5)c(=O)[nH]n3)c(Cl)c2)c(=O)[nH]c1=O [Compound 72, 6-Amino-2-(3,5-dichloro-4-((6-oxo-5-(5,6,7,8-tetrahydro-naphthalen-2-yl)-1,6-dihydro-pyridazin-3-yl)oxy)phenyl)-1,2,4-triazine-3,5(2H,4H)-dione] | 100 to 1000 nM | 50 to 75% | 50 to 250 nM | < 50% | > 10000 nM | – | – | – | – | – | – | – | > 75% | –
6 | CC(C)c1c[nH]c2nnc(Oc3c(Cl)cc(-n4nc(C#N)c(=O)[nH]c4=O)cc3Cl)cc12 [Compound 52, 2-[3,5-dichloro-4-([5-isopropyl-7H-pyrrolo[2,3-c]pyridazin-3-yl]oxy)phenyl]-3,5-dioxo-4H-1,2,4-triazine-6-carbonitrile] | > 100 nM | > 75% | > 10000 nM | 50 to 75% | > 10000 nM | – | – | – | – | – | – | – | > 75% | –
7 | CC(c1ccccc1)c1cc(Oc2c(Cl)cc(-n3nc(N)c(=O)[nH]c3=O)cc2Cl)n[nH]c1=O (single isomer, unassigned) [Compound 164, 6-Amino-2-(3,5-dichloro-4-((6-oxo-5-(1-phenylethyl)-1,6-dihydropyridazin-3-yl)oxy)phenyl)-1,2,4-triazine-3,5(2H,4H)-dione] | < 100 nM | > 75% | – | 50 to 75% | 250 to 1000 nM | – | – | – | – | – | – | – | 50 to 75% | –
8 | Cc1cccc(-c2cc(Oc3c(Cl)cc(-n4nc(N)c(=O)[nH]c4=O)cc3Cl)n[nH]c2=O)c1 [Compound 70, 6-Amino-2-(3,5-dichloro-4-((6-oxo-5-(m-tolyl)-1,6-dihydropyridazin-3-yl)oxy)phenyl)-1,2,4-triazine-3,5(2H,4H)-dione] | < 100 nM | > 75% | < 50 nM | 50 to 75% | 50 to 250 nM | – | – | – | – | – | – | – | 50 to 75% | –

Second part, led by results:

Row | EC50 ([1]; Homo sapiens, Huh-7, 24 h) | Emax (THR beta; [2]) | EC50 (THR beta; [3]) | Emax (THR alpha; [4]) | EC50 (THR alpha; [5]) | EC50 (THR beta; HEK293T reporter THRbeta/RXR, read-out: EC50 β) | Emax (THR beta; HEK293T reporter THRbeta/RXR, read-out: percent in parentheses below EC50 β (percent agonism / Emax)) | EC50 (THR alpha; HEK293T reporter THRalpha/RXR, read-out: EC50 α) | Emax (THR alpha; HEK293T reporter THRalpha/RXR, read-out: percent in parentheses below EC50 α (percent agonism / Emax)) | EC50 [1] | Activity category Assay 2 THRβ (Emax) (THR beta; Table 5, Assay 2, THRβ) | Activity category Assay 2 THRα (Emax) (THR alpha; Table 5, Assay 2, THRα) | SMILES | Emax ([1]; Homo sapiens, Huh-7, 24 h) | Activity category Assay 3 Emax [1]
9 | < 100 nM | 50 to 75% | < 50 nM | > 75% | < 50 nM | – | – | – | – | – | – | – | Nc1nn(-c2cc(Cl)c(Oc3ccc4c(c3)C3(CCCC3)C(=O)N4)c(Cl)c2)c(=O)[nH]c1=O [Compound 83] | > 75% | –
10 | 100 to 1000 nM | 50 to 75% | < 50 nM | < 50% | 50 to 250 nM | – | – | – | – | – | – | – | CC(C)c1cc(=O)[nH]c2ccc(Oc3c(Cl)cc(-n4nc(N)c(=O)[nH]c4=O)cc3Cl)cc12 [Compound 146, 6-amino-2-[3,5-dichloro-4-[(4-isopropyl-2-oxo-1H-quinolin-6-yl)oxy]phenyl]-1,2,4-triazine-3,5-dione] | > 75% | –
11 | < 100 nM | > 75% | < 50 nM | 50 to 75% | < 50 nM | – | – | – | – | – | – | – | Cc1cc(-n2ncc(=O)[nH]c2=O)cc(C)c1Cc1ccc2[nH]cc(C(C)C)c2n1 [Compound 54, 2-[4-[(3-isopropyl-1H-pyrrolo[3,2-b]pyridine-5-yl)methyl]-3,5-dimethyl-phenyl]-1,2,4-triazine-3,5-dione] | > 75% | –
12 | < 100 nM | > 75% | < 50 nM | > 75% | 50 to 250 nM | – | – | – | – | – | – | – | Cc1cc(-n2nc(N)c(=O)[nH]c2=O)cc(C)c1Cc1ccc2[nH]cc(C(C)C)c2n1 [Compound 55, 6-amino-2-[4-[(3-isopropyl-1H-pyrrolo[3,2-b]pyridin-5-yl)methyl]-3,5-dimethyl-phenyl]-1,2,4-triazine-3,5-dione] | > 75% | –
